The structures appear in SMILES notation.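 Following 48 hours of exposure in 96-well plates, responses at five concentrations were used to interpolate endpoints linearly. The concentration for 50% growth inhibition is given as GI50.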 Activity calls are given as the source filed them. No stated cut-off is given here; in the data, active = GI50 up to about 1.1 µM and inactive = higher.

In general, GI50 refers to the concentration at which growth is held to half of that of the control.

Among the test systems are MDA-MB-231; SN12C; UO-31; EKVX; HL-60; A549; HT-29; SF-268; 786-0; RPMI-8226; SF-539; T47D; OVCAR-8; MDA-MB-435; KM12; COLO 205.
Test in all cases: DTP human tumour cell line panel, 48 h

Consider `NC(=O)c1csc(-c2ccc(CO)o2)n1`, for which the GI50 in the assay on MDA-MB-231, in the assay on SN12C, with UO-31, in the assay with EKVX, in the assay with HL-60 and in the assay on A549 was > 100 µM (inactive) throughout. For the same compound, the GI50 in the assay on HT-29, in the assay with SF-268, with 786-0, in the assay with RPMI-8226, in the assay with SF-539 and in the assay with T47D was > 100 µM (inactive) each time. The GI50 with OVCAR-8, with MDA-MB-435, with KM12 and in the assay on COLO 205 was > 100 µM (inactive) throughout.

For `CCOC(=O)c1c(OCC)[nH]c(=O)c(C(c2ccc(F)cc2)c2c(O)c(C(=O)OCC)c(OCC)[nH]c2=O)c1O`, the GI50 with MDA-MB-231 is 12.6 µM (inactive); with SN12C it was 14.7 µM (inactive); with UO-31, 12.8 µM (inactive); in the assay with EKVX, 7.06 µM (inactive); in the assay with HL-60, 17.2 µM (inactive); in the assay on A549 it was 14.8 µM (inactive). Further, the GI50 with HT-29 is 16.1 µM (inactive); in the assay with SF-268, 14.6 µM (inactive); in the assay on 786-0, 16.4 µM (inactive); in the assay with RPMI-8226 it was 16.1 µM (inactive); in the assay with SF-539 it was 10 µM (inactive); in the assay with T47D, 4.44 µM (inactive). Besides, the GI50 is 14 µM (inactive) in the assay with OVCAR-8, 17.6 µM (inactive) in the assay with MDA-MB-435, 16.9 µM (inactive) in the assay with KM12 and 25.9 µM (inactive) with COLO 205.

On to `Cc1ccc(N2CCN(CCC(=O)O)CC2)cc1`, for which the GI50 is > 100 µM (inactive) with MDA-MB-231; > 100 µM (inactive) in the assay on SN12C; > 100 µM (inactive) with UO-31; > 100 µM (inactive) with EKVX; 0.834 µM (active) with HL-60; > 100 µM (inactive) with A549. In addition, the GI50 with HT-29, in the assay on SF-268, with 786-0, in the assay with RPMI-8226, in the assay with SF-539 and with T47D was > 100 µM (inactive) in each case. Also, the GI50 with OVCAR-8, in the assay with MDA-MB-435, in the assay on KM12 and in the assay on COLO 205 was > 100 µM (inactive) in each case.

`COc1ccccc1/C=C\C(=O)C1COCN1` (configuration not stated): the GI50 in the assay with MDA-MB-231 is 17.6 µM (inactive); in the assay with SN12C, 16.4 µM (inactive); with UO-31 it was 16.4 µM (inactive); with EKVX, 19.4 µM (inactive); with HL-60, 19 µM (inactive); with A549, 23.1 µM (inactive). The GI50 with HT-29 is 6.35 µM (inactive); in the assay on SF-268 it was 21 µM (inactive); in the assay on 786-0, 23.9 µM (inactive); in the assay on RPMI-8226, 2.24 µM (inactive); in the assay on SF-539 it was 20.5 µM (inactive); in the assay with T47D it was 1.45 µM (inactive). For the same compound, the GI50 with OVCAR-8 was 14.5 µM (inactive); in the assay on MDA-MB-435, 6.9 µM (inactive); in the assay on KM12 it was 4.39 µM (inactive); in the assay with COLO 205 it was 6.35 µM (inactive).

With `COc1cc(OC)c(/C=N\Nc2nc3ccccc3c(=O)n2-c2ccccc2)c(OC)c1`, the GI50 with MDA-MB-231 was 23.8 µM (inactive); with SN12C, 30.7 µM (inactive); in the assay with UO-31 it was > 48.8 µM (inactive); in the assay with EKVX, 26.9 µM (inactive); with HL-60 it was 33 µM (inactive); in the assay on A549 it was 31.4 µM (inactive). The GI50 with HT-29 is 24.5 µM (inactive); in the assay with SF-268 it was 34.9 µM (inactive); in the assay on 786-0, 17.7 µM (inactive); with RPMI-8226, 26.4 µM (inactive); in the assay with SF-539, 18 µM (inactive); in the assay on T47D, 24.6 µM (inactive). The GI50 was 28.7 µM (inactive) in the assay on OVCAR-8, 24.5 µM (inactive) with MDA-MB-435, > 31.6 µM (inactive) in the assay on KM12 and 45.3 µM (inactive) in the assay with COLO 205.

Consider `COc1ccc(/C=C(/c2ccccc2)c2c(C)cc(C)c(/C(=C\c3ccc(OC)cc3)c3ccccc3)c2/N=N/c2cc(C)cc(C)c2)cc1`, for which the GI50 with MDA-MB-231 was 6.76 µM (inactive); with SN12C, 8.47 µM (inactive); in the assay with UO-31, > 67.5 µM (inactive); in the assay with EKVX, 30 µM (inactive); in the assay on HL-60, 10.3 µM (inactive); in the assay on A549, 14.6 µM (inactive). Also, the GI50 in the assay with HT-29 was 9.71 µM (inactive); in the assay with SF-268, 39.9 µM (inactive); in the assay with 786-0, 13.7 µM (inactive); in the assay with RPMI-8226, 6.07 µM (inactive); in the assay on SF-539, 42.1 µM (inactive); in the assay on T47D it was 4.9 µM (inactive). The GI50 with OVCAR-8 was 17.9 µM (inactive); with MDA-MB-435 it was 14.6 µM (inactive); in the assay on KM12, 9.64 µM (inactive); with COLO 205, 8.04 µM (inactive).

As for `COc1cc(/C=C/C2=NN(c3cccc(S(=O)(=O)O)c3)C3(C2)SCC(=O)N3c2nc3ccccc3s2)cc(OC)c1OC` (configuration not stated), the GI50 in the assay with MDA-MB-231 was 43.3 µM (inactive); in the assay on SN12C, 33.3 µM (inactive); with UO-31, 36.1 µM (inactive); in the assay on EKVX, 68.1 µM (inactive); in the assay on HL-60, 23.8 µM (inactive); with A549, 56.1 µM (inactive). The GI50 in the assay on HT-29 was 90.8 µM (inactive); with SF-268, 39.4 µM (inactive); with 786-0, 18.4 µM (inactive); with RPMI-8226 it was 21.3 µM (inactive); in the assay on SF-539, 46 µM (inactive); in the assay on T47D, 15 µM (inactive). In addition, the GI50 was 44.1 µM (inactive) in the assay with OVCAR-8, 23 µM (inactive) with MDA-MB-435, 38.5 µM (inactive) with KM12 and > 100 µM (inactive) in the assay with COLO 205.

As for `CC/C=C/C(/C=C/C[C@]1(CC)C[C@H](CC)[C@H](CC(=O)O)OO1)CC` (some centres not stated), the GI50 was 4.88 µM (inactive) in the assay with MDA-MB-231; 5.65 µM (inactive) in the assay on SN12C; 0.494 µM (active) in the assay with UO-31; 1.76 µM (inactive) in the assay on EKVX; 2.16 µM (inactive) in the assay with HL-60; 1.68 µM (inactive) in the assay with A549. The GI50 in the assay on HT-29 was 1.84 µM (inactive); with SF-268, 3.58 µM (inactive); in the assay on 786-0, 1.67 µM (inactive); in the assay with RPMI-8226, 1.64 µM (inactive); with SF-539, 1.82 µM (inactive); in the assay with T47D, 2.75 µM (inactive). Besides, the GI50 was 2.9 µM (inactive) in the assay with OVCAR-8, 2.06 µM (inactive) with MDA-MB-435, 1.62 µM (inactive) with KM12 and 1.78 µM (inactive) in the assay on COLO 205.

In the case of `CC(C)=C/C(CC(O)(C(F)(F)F)C(F)(F)F)=N\O`, the GI50 in the assay on MDA-MB-231, in the assay on SN12C, with UO-31, in the assay on EKVX, in the assay on HL-60 and in the assay with A549 was > 100 µM (inactive) throughout. The GI50 in the assay on HT-29, in the assay with SF-268, with 786-0, in the assay with RPMI-8226, in the assay with SF-539 and in the assay with T47D was > 100 µM (inactive) each time. Further, the GI50 with OVCAR-8, with MDA-MB-435, with KM12 and with COLO 205 was > 100 µM (inactive) in each case.

On to `C=C(C)CCC1C=[N+]([O-])OC(C)(C)C1(C)C` (configuration not stated), for which the GI50 was > 100 µM (inactive) with MDA-MB-231; > 100 µM (inactive) in the assay on SN12C; > 100 µM (inactive) in the assay on UO-31; > 100 µM (inactive) in the assay on EKVX; 30.1 µM (inactive) with HL-60; 49.3 µM (inactive) in the assay with A549. In addition, the GI50 with HT-29, in the assay on SF-268, in the assay with 786-0, in the assay on RPMI-8226, in the assay on SF-539 and with T47D was > 100 µM (inactive) throughout. Further, the GI50 with OVCAR-8, in the assay with MDA-MB-435, with KM12 and with COLO 205 was > 100 µM (inactive) each time.

Turning to `O=c1[nH]nc(Cc2ccccc2)n1/N=C/c1ccccc1O`, the GI50 was 63.2 µM (inactive) in the assay with MDA-MB-231; > 100 µM (inactive) in the assay on SN12C; > 100 µM (inactive) in the assay with UO-31; > 100 µM (inactive) with EKVX; > 100 µM (inactive) with HL-60; > 100 µM (inactive) in the assay with A549. The GI50 with HT-29 is > 100 µM (inactive); in the assay on SF-268, 50.1 µM (inactive); with 786-0 it was 41.5 µM (inactive); in the assay with RPMI-8226 it was > 100 µM (inactive); with SF-539, > 100 µM (inactive); in the assay with T47D, > 100 µM (inactive). In addition, the GI50 was 40.1 µM (inactive) in the assay on OVCAR-8, > 100 µM (inactive) with MDA-MB-435, > 100 µM (inactive) in the assay on KM12 and > 100 µM (inactive) in the assay on COLO 205.

As for `C[n+]1c(-c2ccc(/C=N/N=C/c3ccc(-c4cn5ccccc5[n+]4C)cc3)cc2)cn2ccccc21`, the GI50 in the assay with MDA-MB-231, with SN12C, in the assay with UO-31, in the assay with EKVX, in the assay on HL-60 and in the assay with A549 was > 100 µM (inactive) throughout. For the same compound, the GI50 in the assay on HT-29, in the assay on SF-268, with 786-0, in the assay with RPMI-8226, in the assay on SF-539 and in the assay on T47D was > 100 µM (inactive) in each case. Moreover, the GI50 in the assay on OVCAR-8, in the assay on MDA-MB-435, in the assay on KM12 and in the assay with COLO 205 was > 100 µM (inactive) in each case.

The record behind these values is ChEMBL document CHEMBL1201862, “PubChem BioAssay data set” (2004).
